Assay results taken from PubChem BioAssay (NCI).
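Five concentrations, 48 hours, 96-well plates. TGI: total growth inhibition.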

Assays:
Assay in all cases: NCI tumour cell line growth inhibition, 48 h
NCI/ADR-RES ovarian = system: NCI/ADR-RES ovarian
CCRF-CEM leukemia = system: CCRF-CEM leukemia
OVCAR-5 ovarian = system: OVCAR-5 ovarian
MOLT-4 leukemia = system: MOLT-4 leukemia
EKVX NSCLC = system: EKVX NSCLC
HOP-18 NSCLC = system: HOP-18 NSCLC
SF-539 CNS = system: SF-539 CNS
OVCAR-8 ovarian = system: OVCAR-8 ovarian
HCC-2998 colon = system: HCC-2998 colon
NCI-H23 lung = system: NCI-H23 lung
HCT-15 colon = system: HCT-15 colon
SNB-75 CNS = system: SNB-75 CNS
RPMI-8226 leukemia = system: RPMI-8226 leukemia
UACC-62 melanoma = system: UACC-62 melanoma
K-562 leukemia = system: K-562 leukemia
A498 renal = system: A498 renal
HOP-92 NSCLC = system: HOP-92 NSCLC
OVCAR-3 ovarian = system: OVCAR-3 ovarian
NCI-H460 lung = system: NCI-H460 lung
UO-31 renal = system: UO-31 renal
UACC-257 melanoma = system: UACC-257 melanoma
HT29 colon = system: HT29 colon
SK-MEL-28 melanoma = system: SK-MEL-28 melanoma
COLO 205 colon = system: COLO 205 colon
MCF7 breast = system: MCF7 breast
M19-MEL melanoma = system: M19-MEL melanoma
U251 CNS = system: U251 CNS
SW-620 colon = system: SW-620 colon
SNB-78 CNS = system: SNB-78 CNS
OVCAR-4 ovarian = system: OVCAR-4 ovarian
CAKI-1 renal = system: CAKI-1 renal
SNB-19 CNS = system: SNB-19 CNS
DLD-1 colon = system: DLD-1 colon
A549 NSCLC = system: A549 NSCLC
SK-OV-3 ovarian = system: SK-OV-3 ovarian
LOX IMVI melanoma = system: LOX IMVI melanoma
P388/ADR leukemia = system: P388/ADR leukemia
MALME-3M melanoma = system: MALME-3M melanoma
HOP-62 NSCLC = system: HOP-62 NSCLC
NCI-H522 lung = system: NCI-H522 lung
SK-MEL-5 melanoma = system: SK-MEL-5 melanoma
DMS 273 small cell lung = system: DMS 273 small cell lung
NCI-H226 lung = system: NCI-H226 lung
DMS 114 small cell lung = system: DMS 114 small cell lung
HL-60(TB) leukemia = system: HL-60(TB) leukemia
P388 leukemia = system: P388 leukemia
SN12K1 renal = system: SN12K1 renal
SK-MEL-2 melanoma = system: SK-MEL-2 melanoma
KM20L2 colon = system: KM20L2 colon
HCT-116 colon = system: HCT-116 colon
KM12 colon = system: KM12 colon
SF-295 CNS = system: SF-295 CNS
SN12C renal = system: SN12C renal
SF-268 CNS = system: SF-268 CNS
IGROV1 ovarian = system: IGROV1 ovarian

**Q.** Which TGI (NCI/ADR-RES ovarian) does the source give for `O=C(NC(Cc1ccc(I)cc1)C(=O)O)c1cccc(Br)c1` (stereo not given) here?
**A.** > 100 µM

**Q.** And the TGI (CCRF-CEM leukemia)?
**A.** > 100 µM

**Q.** What about the TGI (OVCAR-5 ovarian) of the same compound?
**A.** > 100 µM

**Q.** What about the TGI (MOLT-4 leukemia) of the same compound?
**A.** > 100 µM

**Q.** And the TGI (EKVX NSCLC)?
**A.** > 100 µM

**Q.** What about the TGI (HOP-18 NSCLC) of the same compound?
**A.** > 100 µM

**Q.** What about the TGI (SF-539 CNS) of the same compound?
**A.** > 100 µM

**Q.** And the TGI (OVCAR-8 ovarian)?
**A.** > 100 µM

**Q.** What about the TGI (HCC-2998 colon) of the same compound?
**A.** > 93.1 µM

**Q.** And the TGI (NCI-H23 lung)?
**A.** > 100 µM

**Q.** What about the TGI (HCT-15 colon) of the same compound?
**A.** > 100 µM

**Q.** What about the TGI (SNB-75 CNS) of the same compound?
**A.** > 100 µM

**Q.** And the TGI (RPMI-8226 leukemia)?
**A.** > 100 µM

**Q.** What about the TGI (UACC-62 melanoma) of the same compound?
**A.** > 100 µM

**Q.** And the TGI (K-562 leukemia)?
**A.** > 100 µM

**Q.** And the TGI (A498 renal)?
**A.** > 100 µM

**Q.** What about the TGI (HOP-92 NSCLC) of the same compound?
**A.** > 100 µM

**Q.** What about the TGI (OVCAR-3 ovarian) of the same compound?
**A.** > 100 µM

**Q.** And the TGI (NCI-H460 lung)?
**A.** > 100 µM

**Q.** And the TGI (UO-31 renal)?
**A.** > 100 µM

**Q.** What about the TGI (UACC-257 melanoma) of the same compound?
**A.** > 100 µM

**Q.** And the TGI (HT29 colon)?
**A.** > 100 µM

**Q.** And the TGI (SK-MEL-28 melanoma)?
**A.** > 100 µM

**Q.** What about the TGI (COLO 205 colon) of the same compound?
**A.** > 100 µM

**Q.** What about the TGI (MCF7 breast) of the same compound?
**A.** > 100 µM

**Q.** What about the TGI (M19-MEL melanoma) of the same compound?
**A.** > 100 µM

**Q.** What about the TGI (U251 CNS) of the same compound?
**A.** > 100 µM

**Q.** And the TGI (SW-620 colon)?
**A.** > 100 µM

**Q.** And the TGI (SNB-78 CNS)?
**A.** > 100 µM

**Q.** And the TGI (OVCAR-4 ovarian)?
**A.** > 100 µM

**Q.** And the TGI (CAKI-1 renal)?
**A.** > 100 µM

**Q.** And the TGI (SNB-19 CNS)?
**A.** > 100 µM

**Q.** And the TGI (DLD-1 colon)?
**A.** > 100 µM

**Q.** What about the TGI (A549 NSCLC) of the same compound?
**A.** > 100 µM

**Q.** And the TGI (SK-OV-3 ovarian)?
**A.** > 100 µM

**Q.** What about the TGI (LOX IMVI melanoma) of the same compound?
**A.** > 100 µM

**Q.** What about the TGI (P388/ADR leukemia) of the same compound?
**A.** > 100 µM

**Q.** What about the TGI (MALME-3M melanoma) of the same compound?
**A.** > 100 µM

**Q.** What about the TGI (HOP-62 NSCLC) of the same compound?
**A.** > 100 µM

**Q.** And the TGI (NCI-H522 lung)?
**A.** > 100 µM

**Q.** What about the TGI (SK-MEL-5 melanoma) of the same compound?
**A.** > 100 µM

**Q.** And the TGI (DMS 273 small cell lung)?
**A.** > 100 µM

**Q.** What about the TGI (NCI-H226 lung) of the same compound?
**A.** > 100 µM

**Q.** And the TGI (DMS 114 small cell lung)?
**A.** > 100 µM

**Q.** What about the TGI (HL-60(TB) leukemia) of the same compound?
**A.** > 100 µM

**Q.** And the TGI (P388 leukemia)?
**A.** > 100 µM

**Q.** What about the TGI (SN12K1 renal) of the same compound?
**A.** > 100 µM

**Q.** What about the TGI (SK-MEL-2 melanoma) of the same compound?
**A.** > 100 µM

**Q.** What about the TGI (KM20L2 colon) of the same compound?
**A.** > 100 µM

**Q.** What about the TGI (HCT-116 colon) of the same compound?
**A.** > 100 µM

**Q.** And the TGI (KM12 colon)?
**A.** > 100 µM

**Q.** What about the TGI (SF-295 CNS) of the same compound?
**A.** > 100 µM

**Q.** What about the TGI (SN12C renal) of the same compound?
**A.** > 100 µM

**Q.** And the TGI (SF-268 CNS)?
**A.** > 100 µM

**Q.** What about the TGI (IGROV1 ovarian) of the same compound?
**A.** > 100 µM
